Measurements from US10070645B2, “N-cycloalkyl-N-{[2-(1-substitutedcycloalkyl)phenyl]methylene}-(thio)carboxamide derivatives” (BAYER CROPSCIENCE AKTIENGESELLSCHAFT, priority 2013, dated 2018).

Test: log P by HPLC on a reversed-phase column (C 18), EEC Directive 79/831 Annex V.A8
Assay type: physicochemical
Conditions: HPLC on reversed-phase column (C 18), 40° C., 0.1% aqueous formic acid and acetonitrile, linear gradient 10% to 90% acetonitrile
Description: In table 1, the log P values were determined in accordance with EEC Directive 79/831 Annex V.A8 by HPLC (High Performance Liquid Chromatography) on a reversed-phase column (C 18), using the method described below:
Temperature: 40° C.; Mobile phases: 0.1% aqueous formic acid and acetonitrile; linear gradient from 10% acetonitrile to 90% acetonitrile.
Calibration was carried out using unbranched alkan-2-ones (comprising 3 to 16 carbon atoms) with known log P values (determination of the log P values by the retention times using linear interpolation between two successive alkanones). lambda-max-values were determined using UV-spectra from 200 nm to 400 nm and the peak values of the chromatographic signals.

logP | SMILES
3.52 | COCC1(c2ccc(C)cc2CN(C(=O)c2c(C(F)F)nn(C)c2F)C2CC2)CC1 [I.182]
5.54 | Cc1ccc(C2(CC(C)C)CC2)c(CN(C(=O)c2c(C(F)F)nn(C)c2Cl)C2CC2)c1 [I.160]
4.21 | Cn1nc(C(F)F)c(C(=O)N(Cc2cc(F)ccc2C2(C)CC2(Cl)Cl)C2CC2)c1Cl (racemic) [I.171]

Same assay, conditions: HPLC, reversed-phase column (C 18), 40° C., 0.1% aqueous formic acid and acetonitrile, linear gradient 10% to 90% acetonitrile

logP | SMILES
3.73 | Cc1ccc(C2(C)CC2)c(CN(C(=O)c2c(C(F)F)nn(C)c2F)C2(C#N)CC2)c1 [I.076]
4.44 | Cn1nc(C(F)F)c(C(=O)N(Cc2cc(Cl)ccc2C2(C)CC2)C2CC2)c1Cl [I.061]
3.67 | Cn1nc(C(F)F)c(C(=O)N(Cc2ccc3c(c2C2(C)CC2)OCO3)C2CC2)c1Cl [I.017]
4.96 | Cn1nc(C(F)F)c(C(=O)N(Cc2ccc(-c3ccc(F)cc3)cc2C2(C)CC2)C2CC2)c1F [I.041]
4.58 | Cc1ccc(C2(C)CC2Cl)c(CN(C(=O)c2c(C(F)F)nn(C)c2F)C2CC2)c1Cl (stereo not drawn) [I.140]
4.91 | Cn1nc(C(F)F)c(C(=O)N(Cc2ccc(Oc3ccccc3)cc2C2(C)CC2)C2CC2)c1F [I.032]
4.61 | CCC1(c2ccc(C)cc2CN(C(=O)c2c(C(F)F)nn(C)c2F)C2CC2)CC1 [I.113]
3.53 | Cn1nc(C(F)F)c(C(=O)N(Cc2cc(F)ccc2C2(C(F)F)CC2)C2CC2)c1Cl [I.152]
4.64 | C=C(C)c1cccc(CN(C(=O)c2c(C(F)F)nn(C)c2F)C2CC2)c1C1(C)CC1 [I.015]
2.35 | Cn1nc(C(F)F)c(C(=O)N(Cc2ccc(-c3cccnc3)cc2C2(C)CC2)C2CC2)c1F [I.044]
4.56 | Cn1nc(C(F)F)c(C(=O)N(Cc2cc(Br)ccc2C2(C)CC2)C2CC2)c1Cl [I.057]
4.80 | Cc1ccc(C2(C)CC2)c(CN(C(=S)c2c(C(F)F)nn(C)c2F)C2CC2)c1 [I.073]
5.59 | Cn1nc(C(F)F)c(C(=O)N(Cc2cccc(C3=CCCCC3)c2C2(C)CC2)C2CC2)c1F [I.014]
4.85 | CCC1(c2cc(C)c(F)cc2CN(C(=O)c2c(C(F)F)nn(C)c2Cl)C2CC2)CC1 [I.107]
5.48 | Cn1nc(C(F)F)c(C(=O)N(Cc2cc(-c3csc4ccccc34)ccc2C2(C)CC2)C2CC2)c1F [I.081]
3.55 | COC1(c2ccc(C3=CCOCC3)cc2CN(C(=O)c2c(C(F)F)nn(C)c2F)C2CC2)CC1 [I.124]
4.72 | Cc1ccc(C2(C3CC3)CC2)c(CN(C(=O)c2c(C(F)F)nn(C)c2Cl)C2CC2)c1 [I.135]
4.46 | Cn1nc(C(F)F)c(C(=S)N(Cc2ccccc2C2(C)CC2)C2CC2)c1F [I.003]
4.15 | Cn1ccc(-c2ccc(CN(C(=O)c3c(C(F)F)nn(C)c3F)C3CC3)c(C3(C)CC3)c2)c1 [I.034]
3.87 | Cn1nc(C(F)F)c(C(=O)N(Cc2c(Br)cccc2C2(C(F)F)CC2)C2CC2)c1Cl [I.156]

Same assay, conditions: reversed-phase HPLC column (C 18); Table 3 (amines of formula II); HPLC C 18, 40° C., 0.1% aqueous formic acid and acetonitrile

chromatographic logP | SMILES
1.25 | FC(F)(F)C1(c2ccccc2CNC2CC2)CC1 [II.45, N-{2-[1-(trifluoromethyl)cyclopropyl]benzyl}cyclopropanamine]
1.82 | CCC1(c2ccc(C(F)(F)F)cc2CNC2CC2)CC1 [II.28, N-[2-(1-ethylcyclopropyl)-5-(trifluoromethyl)benzyl]cyclopropanamine]
1.81 | CCCC1(c2ccc(C)cc2CNC2CC2)CC1 [II.33, N-[5-methyl-2-(1-propylcyclopropyl)benzyl]cyclopropanamine]
1.54 | CC1(c2cc(Cl)ccc2CNC2CC2)CC1 [II.04, N-[4-chloro-2-(1-methylcyclopropyl)benzyl]cyclopropanamine]
1.66 | CCC1(c2ccc(Cl)cc2CNC2CC2)CC1 [II.29, N-[5-chloro-2-(1-ethylcyclopropyl)benzyl]cyclopropanamine]

Same assay, conditions: reversed-phase HPLC column (C 18); Table 4 (aldehydes of formula IV); HPLC C 18, 40° C., 0.1% aqueous formic acid and acetonitrile

chromatographic logP | SMILES
3.44 | Cc1ccc(C=O)c(C2(C)CC2)c1 [IV.04, 4-methyl-2-(1-methylcyclopropyl)benzaldehyde]
3.22 | CC1(c2ccc(F)cc2C=O)CC1 [IV.11, 5-fluoro-2-(1-methylcyclopropyl)benzaldehyde]
